Assay results: patent publication US5821353A, “DNA encoding 1,3 beta-D glucan synthase subunits” (Merck & Co., Inc., priority 1996, dated 1998)

Test system: S. cerevisiae YFK798 (fks1-1 + CN)
Experiment: primary screen, zone size on agar (calcineurin counter screen)
Assay type: cell-based, Saccharomyces cerevisiae
Settings: 20 ng FK506, 10 mcg CsA, 10 mcg L733,560, 20 mcg aculeacin, 20 mcg papulacandin, 48 h
Protocol: Counter screening strains were devised for identifying calcineurin inhibitors. Overexpression of yeast calcineurin in the fks1-1 mutant (strain YFK798) constitutes the most general of these. […] Glucan synthase inhibitors show neither effect and thus can be distinguished from calcineurin inhibitors.
Each strain is grown at 28°-30° C. in YPAD/10 mM CaCl2 medium with shaking at 220 rpm (to mid or late log phase). The cultures are diluted 1:10 with water, and the OD values of the dilutions are measured at 600 nm (against a blank of YPAD/10 mM CaCl2 similarly diluted 1:10 in water). The OD value is multiplied by 10 to estimate the OD of the culture. Portions (100 ml) of YPAD/10 mM CaCl2 medium containing 1.5% agar, equilibrated at 45° C. in a water bath, are seeded with culture such that the final cell density in the agar would have an OD value of 0.015 (i.e., 3×10^6 cfu/ml; a sample calculation is provided below). The seeded agar is poured into 500 cm^2 Nunc plates. Once the agar plates have solidified, 10 mcL aliquots of samples containing test compounds, such as fermentation extracts, are dissolved in water, 100% methanol or ethanol, or up to 50% DMSO and are placed on each member of the two-plate set in 11 by 8 arrays.
The plates are incubated for 48 h at 28°-30° C. Diameters of the zones are read to the outermost edge and recorded in mm. The clarity of the zone is reported as clear (no designation), hazy (h), or very hazy (vh). Very hazy zones are best seen by viewing the plate under an elevated light placed between the assay dish and a dark wall.

## dihydropapulacandin [L-687,781]
  Primary Screen Zone size (mm): 26-28 mm
